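Grown in 96-well plates, cells were treated for 48 hours with each compound at five concentrations. Insufficient inhibition: endpoint recorded as highest concentration tested. Here, GI50 denotes the concentration required for 50% inhibition of growth.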 Activity calls are given as the source filed them. No stated cut-off is given here; in the data, active = GI50 up to about 1.1 µM and inactive = higher.
Experiments:
Test in all cases: inhibition of tumour cell growth, NCI panel, 48 h
[1] = system: 786-0
[2] = system: A498
[3] = system: A549
[4] = system: ACHN
[5] = system: CCRF-CEM
[6] = system: COLO 205
[7] = system: DLD-1
[8] = system: DMS-114
[9] = system: DMS-273
[10] = system: EKVX
[11] = system: HCT-116
[12] = system: HCT-15
[13] = system: HL-60
[14] = system: HOP-18
[15] = system: HOP-62
[16] = system: HOP-92
[17] = system: HT-29
[18] = system: IGROV-1
[19] = system: K562
[20] = system: KM-20L2
[21] = system: KM12
[22] = system: LOX IMVI
[23] = system: LXFL 529
[24] = system: M14
[25] = system: M19-MEL
[26] = system: MOLT-4
[27] = system: NCI-H226
[28] = system: NCI-H23
[29] = system: NCI-H460
[30] = system: NCI-H522
[31] = system: OVCAR-4
[32] = system: OVCAR-5
[33] = system: OVCAR-8
[34] = system: RPMI-8226
[35] = system: RXF 393
[36] = system: SF-268
[37] = system: SF-295
[38] = system: SF-539
[39] = system: SK-MEL-28
[40] = system: SK-MEL-5
[41] = system: SN12C
[42] = system: SNB-19
[43] = system: SNB-75
[44] = system: SNB-78
[45] = system: SR
[46] = system: SW-620
[47] = system: U-251
[48] = system: UACC-257
[49] = system: UACC-62
[50] = system: CAKI-1
[51] = system: HCC 2998
[52] = system: Malme-3M
[53] = system: OVCAR-3
[54] = system: SK-MEL-2
[55] = system: SK-OV-3
[56] = system: TK-10
[57] = system: UO-31

COc1ccc(/C=C2\N=C(c3ccccc3)N(Nc3nnc(NN4C(=O)/C(=C/c5ccc(OC)cc5)N=C4c4ccccc4)c4ccccc34)C2=O)cc1
GI50 [1]: 56.9 µM (inactive) | GI50 [2]: > 100 µM (inactive) | GI50 [3]: > 100 µM (inactive) | GI50 [4]: > 100 µM (inactive) | GI50 [5]: 30.7 µM (inactive) | GI50 [6]: > 100 µM (inactive) | GI50 [7]: 42.3 µM (inactive) | GI50 [8]: 61 µM (inactive) | GI50 [9]: 41.3 µM (inactive) | GI50 [10]: > 100 µM (inactive) | GI50 [11]: 94.4 µM (inactive) | GI50 [12]: 40.8 µM | GI50 [13]: 30 µM (inactive) | GI50 [14]: 92.3 µM (inactive) | GI50 [15]: 62.7 µM (inactive) | GI50 [16]: > 100 µM (inactive) | GI50 [17]: 57.5 µM (inactive) | GI50 [18]: > 100 µM (inactive) | GI50 [19]: 38.1 µM (inactive) | GI50 [20]: 53.2 µM (inactive) | GI50 [21]: 17.2 µM (inactive) | GI50 [22]: 20.7 µM (inactive) | GI50 [23]: 44.4 µM (inactive) | GI50 [24]: > 100 µM (inactive) | GI50 [25]: 58.7 µM (inactive) | GI50 [26]: 29.6 µM (inactive) | GI50 [27]: 96.4 µM (inactive) | GI50 [28]: > 100 µM (inactive) | GI50 [29]: > 100 µM (inactive) | GI50 [30]: 35.1 µM (inactive) | GI50 [31]: 53.2 µM (inactive) | GI50 [32]: > 100 µM (inactive) | GI50 [33]: > 100 µM (inactive) | GI50 [34]: 26.4 µM (inactive) | GI50 [35]: > 100 µM (inactive) | GI50 [36]: 81.8 µM (inactive) | GI50 [37]: > 100 µM (inactive) | GI50 [38]: 70.6 µM (inactive) | GI50 [39]: 71.1 µM (inactive) | GI50 [40]: 48.5 µM (inactive) | GI50 [41]: 68.5 µM (inactive) | GI50 [42]: > 100 µM (inactive) | GI50 [43]: 68.9 µM (inactive) | GI50 [44]: > 100 µM (inactive) | GI50 [45]: 26.6 µM (inactive) | GI50 [46]: 55.2 µM (inactive) | GI50 [47]: 94.8 µM (inactive) | GI50 [48]: > 100 µM (inactive) | GI50 [49]: 70.5 µM (inactive)

CCCNC(=O)C(C)(Cl)C(=O)c1ccccc1O (centres undefined)
GI50 [1]: > 100 µM (inactive) | GI50 [2]: > 100 µM (inactive) | GI50 [3]: > 100 µM (inactive) | GI50 [4]: > 100 µM (inactive) | GI50 [50]: > 100 µM (inactive) | GI50 [5]: > 100 µM (inactive) | GI50 [6]: > 100 µM (inactive) | GI50 [7]: > 100 µM (inactive) | GI50 [8]: > 100 µM (inactive) | GI50 [9]: > 100 µM (inactive) | GI50 [51]: > 100 µM (inactive) | GI50 [11]: > 100 µM (inactive) | GI50 [12]: > 100 µM | GI50 [13]: > 100 µM (inactive) | GI50 [14]: > 100 µM (inactive) | GI50 [15]: > 100 µM (inactive) | GI50 [18]: > 100 µM (inactive) | GI50 [19]: > 100 µM (inactive) | GI50 [20]: > 100 µM (inactive) | GI50 [21]: > 100 µM (inactive) | GI50 [23]: > 100 µM (inactive) | GI50 [24]: > 100 µM (inactive) | GI50 [25]: > 100 µM (inactive) | GI50 [26]: > 100 µM (inactive) | GI50 [52]: > 100 µM (inactive) | GI50 [27]: > 100 µM (inactive) | GI50 [29]: > 100 µM (inactive) | GI50 [30]: > 100 µM (inactive) | GI50 [53]: > 100 µM (inactive) | GI50 [31]: > 100 µM (inactive) | GI50 [33]: > 100 µM (inactive) | GI50 [34]: > 100 µM (inactive) | GI50 [35]: > 100 µM (inactive) | GI50 [36]: > 100 µM (inactive) | GI50 [38]: > 100 µM (inactive) | GI50 [39]: > 100 µM (inactive) | GI50 [54]: > 100 µM (inactive) | GI50 [40]: > 100 µM (inactive) | GI50 [55]: > 100 µM (inactive) | GI50 [41]: > 100 µM (inactive) | GI50 [42]: > 100 µM (inactive) | GI50 [43]: > 100 µM (inactive) | GI50 [44]: > 100 µM (inactive) | GI50 [45]: > 100 µM (inactive) | GI50 [46]: > 100 µM (inactive) | GI50 [56]: > 100 µM (inactive) | GI50 [47]: > 100 µM (inactive) | GI50 [48]: > 100 µM (inactive) | GI50 [49]: > 100 µM (inactive) | GI50 [57]: > 100 µM (inactive)

Source: ChEMBL document CHEMBL1201862, “PubChem BioAssay data set” (2004)
